Molecular target: Human TASK-1 channels (Homo sapiens (Human), UniProt O14649)
Test: Activity on the TASK-1 channel in Xenopus oocytes (two-microelectrode voltage clamp)
Assay type: cell-based
Details: not given
Experimental: Human TASK-1 channels were expressed in Xenopus oocytes. For this purpose, oocytes were isolated from Xenopus laevis and defoliculated. Subsequently, TASK-1-encoding RNA synthesized in vitro was injected into oocytes. […] Data were acquired and analyzed using a TEC-10cx amplifier (NPI Electronic, Tamm, Germany) connected to an ITC-16 interface (Instrutech Corp., Long Island, USA) and Pulse software (HEKA Elektronik, Lambrecht, Germany). […] Oocytes were continuously superfused with ND96 buffer containing: NaCl 96 mM, KCl 2 mM, CaCl2 1.8 mM, MgCl2 1 mM, HEPES 5 mM (pH adjusted to 7.4 with NaOH). All experiments were performed at room temperature.
Test substances were consecutively added to the bath solution at rising concentrations. […] IC50 values were obtained by fitting the data to the general dose-response equation.

Human TASK-1 channels, sequence (O14649 whole entry): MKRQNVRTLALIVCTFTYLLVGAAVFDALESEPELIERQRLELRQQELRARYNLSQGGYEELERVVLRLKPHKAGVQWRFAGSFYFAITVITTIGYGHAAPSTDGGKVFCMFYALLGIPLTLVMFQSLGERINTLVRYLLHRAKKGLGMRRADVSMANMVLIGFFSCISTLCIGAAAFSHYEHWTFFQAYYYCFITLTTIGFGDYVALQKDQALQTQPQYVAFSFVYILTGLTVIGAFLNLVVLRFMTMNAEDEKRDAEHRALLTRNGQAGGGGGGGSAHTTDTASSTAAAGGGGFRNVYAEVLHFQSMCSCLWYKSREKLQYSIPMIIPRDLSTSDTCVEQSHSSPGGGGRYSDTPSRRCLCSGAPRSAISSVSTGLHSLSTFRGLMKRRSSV

SMILES | inhibition at 5 µM
CC(c1ccc(F)cc1)n1nc(-c2ccc(F)cc2)c2c1CCN(C(=O)NC(C)(C)C)C2 (single isomer, unassigned) [Example 11f, 3-(4-Fluoro-phenyl)-1-[1-(4-fluoro-phenyl)-ethyl]-1,4,6,7-tetrahydro-pyrazolo[4,3-c]pyridine-5-carboxylic acid tert-butylamide] | 58%
CC(=O)N1CCc2c(c(-c3ncccc3C)nn2Cc2ccc(F)cc2F)C1 [Example 6ab, 1-[1-(2,4-Difluoro-benzyl)-3-(3-methyl-pyridin-2-yl)-1,4,6,7-tetrahydro-pyrazolo[4,3-c]pyridin-5-yl]-ethanone] | 76%
COc1ccnc(-c2nn(Cc3ccc(F)cc3F)c3c2CN(C(C)=O)CC3)c1 [Example 6ac, 1-[1-(2,4-Difluoro-benzyl)-3-(4-methoxy-pyridin-2-yl)-1,4,6,7-tetrahydro-pyrazolo[4,3-c]pyridin-5-yl]-ethanone] | 80%
CC(=O)N1CCc2c(c(-c3cccc(C(F)(F)F)c3)nn2Cc2csc(C)n2)C1 [Example 6ad, 1-[1-(2-Methyl-thiazol-4-ylmethyl)-3-(3-trifluoromethyl-phenyl)-1,4,6,7-tetrahydro-pyrazolo[4,3-c]pyridin-5-yl]-ethanone] | 86%
CC(=O)N1CCc2c(c(-c3cccc(C(F)(F)F)c3)nn2Cc2nccs2)C1 [Example 6ae, 1-[1-Thiazol-2-ylmethyl-3-(3-trifluoromethyl-phenyl)-1,4,6,7-tetrahydro-pyrazolo[4,3-c]pyridin-5-yl]-ethanone] | 84%
CC(=O)N1CCc2c(c(-c3cccs3)nn2Cc2ccc(F)cc2F)C1 [Example 6af, 1-[1-(2,4-Difluoro-benzyl)-3-thiophen-2-yl-1,4,6,7-tetrahydro-pyrazolo[4,3-c]pyridin-5-yl]-ethanone] | 72%
CC(=O)N1CCc2c(c(-c3cccc(C)c3)nn2Cc2ccc(Cl)s2)C1 [Example 6ag, 1-[1-(5-Chloro-thiophen-2-ylmethyl)-3-m-tolyl-1,4,6,7-tetrahydro-pyrazolo[4,3-c]pyridin-5-yl]-ethanone] | 75%
CC(=O)N1CCc2c(c(-c3cccc(C(F)(F)F)c3)nn2Cc2ccc(Cl)s2)C1 [Example 6ah, 1-[1-(5-Chloro-thiophen-2-ylmethyl)-3-(3-trifluoromethyl-phenyl)-1,4,6,7-tetrahydro-pyrazolo[4,3-c]pyridin-5-yl]-ethanone] | 53%
CC(=O)N1CCc2c(c(-c3cccc(C#N)c3)nn2Cc2ccc(Cl)s2)C1 [Example 6ai, 3-[5-Acetyl-1-(5-chloro-thiophen-2-ylmethyl)-4,5,6,7-tetrahydro-1H-pyrazolo[4,3-c]pyridin-3-yl]-benzonitrile] | 79%
CC(=O)N1CCc2c(c(-c3cccc(Cl)c3)nn2Cc2ccc(Cl)s2)C1 [Example 6aj, 1-[3-(3-Chloro-phenyl)-1-(5-chloro-thiophen-2-ylmethyl)-1,4,6,7-tetrahydro-pyrazolo[4,3-c]pyridin-5-yl]-ethanone] | 76%
CC(=O)N1CCc2c(c(-c3ccsc3)nn2Cc2ccc(F)cc2F)C1 [Example 6al, 1-[1-(2,4-Difluoro-benzyl)-3-thiophen-3-yl-1,4,6,7-tetrahydro-pyrazolo[4,3-c]pyridin-5-yl]-ethanone] | 75%

Same assay, conditions: human TASK-1 expressed in Xenopus oocytes, currents during pulses to 40 mV, room temperature

SMILES | IC50
CC(=O)N1CCc2c(c(-c3ccc(Cl)s3)nn2Cc2ccc(F)cc2F)C1 [Example 6ak, 1-[3-(5-Chloro-thiophen-2-yl)-1-(2,4-difluoro-benzyl)-1,4,6,7-tetrahydro-pyrazolo[4,3-c]pyridin-5-yl]-ethanone] | 270 nM
CC(=O)N1CCc2c(c(-c3cccc(C(F)(F)F)c3)nn2Cc2ccc(C#N)cc2)C1 [Example 6am, 4-[5-Acetyl-3-(3-trifluoromethyl-phenyl)-4,5,6,7-tetrahydro-pyrazolo[4,3-c]pyridin-1-ylmethyl]-benzonitrile] | 114 nM
CC(=O)N1CCc2c(c(-c3cccc(C#N)c3)nn2C(C)c2ccc(F)cc2)C1 (stereo not shown) [Example 6an, 3-{5-Acetyl-1-[1-(4-fluoro-phenyl)-ethyl]-4,5,6,7-tetrahydro-1H-pyrazolo[4,3-c]pyridin-3-yl}-benzonitrile] | 187 nM
CC(=O)N1CCc2c(c(-c3ccc(F)cc3)nn2C(c2ccc(F)cc2)C2CC2)C1 (stereo not shown) [Example 6ao, 1-[1-[Cyclopropyl-(4-fluoro-phenyl)-methyl]-3-(4-fluoro-phenyl)-1,4,6,7-tetrahydro-pyrazolo[4,3-c]pyridin-5-yl]-ethanone] | 258 nM
CC(=O)N1CCc2c(c(-c3cccc(OC(F)(F)F)c3)nn2Cc2ccc(F)cc2F)C1 [Example 6ap, 1-[1-(2,4-Difluoro-benzyl)-3-(3-trifluoromethoxy-phenyl)-1,4,6,7-tetrahydro-pyrazolo[4,3-c]pyridin-5-yl]-ethanone] | 285 nM
CC(=O)N1CCc2c(c(-c3ccc(F)cc3)nn2Cc2c(F)cccc2F)C1 [Example 6aq, 1-[1-(2,6-Difluoro-benzyl)-3-(4-fluoro-phenyl)-1,4,6,7-tetrahydro-pyrazolo[4,3-c]pyridin-5-yl]-ethanone] | 359 nM
CC(=O)N1CCc2c(c(-c3ccc(F)cc3)nn2C(C)c2ccc(F)cc2)C1 (stereo not shown) [Example 6ar, 1-{3-(4-Fluoro-phenyl)-1-[1-(4-fluoro-phenyl)-ethyl]-1,4,6,7-tetrahydro-pyrazolo[4,3-c]pyridin-5-yl}-ethanone] | 552 nM

Other lines, results leading:

IC50 | SMILES
511 nM | CC(c1ccc(F)cc1)n1nc(-c2ccc(F)cc2)c2c1CCN(C(=O)N1CCOCC1)C2 (single isomer, unassigned) [Example 12b, {3-(4-Fluoro-phenyl)-1-[1-(4-fluoro-phenyl)-ethyl]-1,4,6,7-tetrahydro-pyr-azolo[4,3-c]pyridin-5-yl}-morpholin-4-yl-methanone]
734 nM | CC(c1ccc(F)cc1)n1nc(-c2ccc(F)cc2)c2c1CCN(C(=O)N1CC[C@H](O)C1)C2 (single isomer, unassigned) [Example 12c]
500 nM | CC(=O)N1CCc2c(c(-c3ccc(F)cc3)nn2C(C)c2ccc(F)cc2)C1 (single isomer, unassigned; (+)) [Example 6be, (+)-1-{3-(4-Fluoro-phenyl)-1-[1-(4-fluoro-phenyl)-ethyl]-1,4,6,7-tetrahydro-pyrazolo[4,3-c]pyridin-5-yl}-ethanone]
500 nM | CC(=O)N1CCc2c(c(-c3ccc(F)cc3)nn2C(C)c2ccc(F)cc2)C1 (single isomer, unassigned; (-)) [Example 6bf, (−)-1-{3-(4-Fluoro-phenyl)-1-[1-(4-fluoro-phenyl)-ethyl]-1,4,6,7-tetrahydro-pyrazolo[4,3-c]pyridin-5-yl}-ethanone]
659 nM | CC(=O)N1CCc2c(c(-c3ccc(F)cc3)nn2Cc2ccc(C(F)(F)F)cc2)C1 [Example 6as, 1-[3-(4-Fluoro-phenyl)-1-(4-trifluoromethyl-benzyl)-1,4,6,7-tetrahydro-pyrazolo[4,3-c]pyridin-5-yl]-ethanone]
720 nM | COc1cccc(-c2nn(Cc3ccc(F)cc3F)c3c2CN(C(C)=O)CC3)c1 [Example 6at, 1-[1-(2,4-Difluoro-benzyl)-3-(3-methoxy-phenyl)-1,4,6,7-tetrahydro-pyrazolo[4,3-c]pyridin-5-yl]-ethanone]
911 nM | CC(=O)N1CCc2c(c(-c3ccc(F)cc3)nn2Cc2cccc(C(F)(F)F)c2)C1 [Example 6av, 1-[3-(4-Fluoro-phenyl)-1-(3-trifluoromethyl-benzyl)-1,4,6,7-tetrahydro-pyrazolo[4,3-c]pyridin-5-yl]-ethanone]

Reference: patent US9127001B2, “Substituted 4,5,6,7-tetrahydro-1H-pyrazolo[4,3-c]pyridines, their use as medicament, and pharmaceutical preparations comprising them” (Sanofi, priority 2011, dated 2015)
